Measurements from patent publication US11491120B2, “Pharmacological prophylactics against stress-induced affective disorders in females” (The Trustees of Columbia University in the City of New York, priority 2017, dated 2022).
Entries after “also recorded” stand apart in the source; their conditions may differ.

How the values were obtained:
female 129S6/SvEv mice [1] = test: Forced swim test (FST), immobility time, after stress
female 129S6/SvEv mice [2] = test: Forced swim test after 10-day chronic immobilization stress (CIS); assay type: in vivo, mouse; conditions: 0.025 mg/kg, 1 week prophylactic drug
Experimental: The CIS procedure induces a depressive-like phenotype in test subjects and has both predictive and face validity (54). Here, we used an adapted protocol from Ramirez et al. (55).
As previously tested in male mice (18), we validated our findings in a model of chronic stress. […] Drug dosages were chosen based on results from FIG. 1 and used for the remainder of the project unless otherwise specified. One week later, a 10-day CIS protocol was administered. Subsequently, mice were tested in the FST.

[3] = Sal vs. (2R,6R)-HNK (0.025), Fisher's PLSD, 3 day prophylactic drug/Forced Swim Test Day 1
[4] = Same drug, Sham vs. ovariectomized, 1 week prophylactic drug, Forced Swim Test Day 2, K (10), (2R,6R)-HNK (0.025), FIG. 5C
[5] = Sham-operated females, 1 week prophylactic drug, Forced Swim Test Day 2, K (10), (2R,6R)-HNK (0.025), FIG. 5C

Question: For `N[C@@]1(c2ccccc2Cl)CCC[C@@H](O)C1=O` [(2R,6R)-HNK, (2R,6R)-hydroxynorketamine], which “*, Immobility Time (min 4)” value (female 129S6/SvEv mice [1]; [3]) is on record?
Answer: ** (** p<0.01)

Question: What about the “*, Immobility Time (min 5)” value (female 129S6/SvEv mice [1]; [3]) of the same compound?
Answer: ** (** p<0.01)

Question: What about the “*, Immobility Time (min 6)” value (female 129S6/SvEv mice [1]; [3]) of the same compound?
Answer: ** (** p<0.01)

Question: And the “*, Immobility Time Average (min 3-6)” value (female 129S6/SvEv mice [1]; [3])?
Answer: ** (** p<0.01)

Question: And the “p, Immobility Time (min 1)” value (female 129S6/SvEv mice [1]; [3])?
Answer: <0.0001

Question: What about the “p, Immobility Time (min 2)” value (female 129S6/SvEv mice [1]; [3]) of the same compound?
Answer: 0.0005

Question: And the “p, Immobility Time (min 3)” value (female 129S6/SvEv mice [1]; [3])?
Answer: 0.0073

Question: What about the “p, Immobility Time (min 4)” value (female 129S6/SvEv mice [1]; [3]) of the same compound?
Answer: 0.0039

Question: And the “p, Immobility Time (min 5)” value (female 129S6/SvEv mice [1]; [3])?
Answer: 0.0006

Question: And the “p, Immobility Time (min 6)” value (female 129S6/SvEv mice [1]; [3])?
Answer: 0.0006

Question: And the “p, Immobility Time Average (min 3-6)” value (female 129S6/SvEv mice [1]; [3])?
Answer: 0.0008

Question: What about the “p, Immobility Time (min 1)” value (female 129S6/SvEv mice [1]; Sal vs. (2R,6R)-HNK (0.025), Fisher's PLSD, Antidepressant drug/Forced Swim Test Day 2) of the same compound?
Answer: 0.2184

Question: And the “p, Immobility Time Average (min 3-6)” value (female 129S6/SvEv mice [1]; Sal vs. (2R,6R)-HNK (0.025), t-test, 24 hour prophylactic drug/Forced Swim Test Day 1)?
Answer: 0.5779

Question: What about the “p, Fisher's PLSD, Immobility Time Average (min 3-6), Sham drug vs. OVX drug” value (female 129S6/SvEv mice [1]; [4]) of the same compound?
Answer: 0.0476

Question: What about the “significance (*), Fisher's PLSD, Immobility Time Average (min 3-6), Sham drug vs. OVX drug” value (female 129S6/SvEv mice [1]; [4]) of the same compound?
Answer: * (* p<0.05)

Question: What about the “p, Fisher's PLSD, Immobility Time Average (min 3-6), Sham Sal vs. Sham drug” value (female 129S6/SvEv mice [1]; [5]) of the same compound?
Answer: 0.0099

Question: And the “significance (*), Fisher's PLSD, Immobility Time Average (min 3-6), Sham Sal vs. Sham drug” value (female 129S6/SvEv mice [1]; [5])?
Answer: ** (** p<0.01)

Question: What about the “Immobility in the FST (Day 1 and Day 2) vs saline” value (female 129S6/SvEv mice [1]; drug administered 1 hour after 3-shock CFC stressor, female mice) of the same compound?
Answer: did not reduce immobility levels; also recorded: Neither (R,S)-ketamine nor (2R,6R)-HNK significantly affected immobility time

Question: And the “Prophylactically effective dose in females” value (female 129S6/SvEv mice [1]; female mice, 1 week before stressor)?
Answer: 0.025 mg/kg

Question: And the “Immobility in the FST vs saline” value (female 129S6/SvEv mice [1]; ovariectomized mice with cyclic E2 and P4 replacement, drug 1 week before CFC)?
Answer: significantly less immobile compared to control saline mice; also recorded: significantly reduced immobility

Question: What about the “Prophylactic efficacy against stress-induced depressive-like behavior” value (female 129S6/SvEv mice [1]; single injection 1 week before stressor, female mice) of the same compound?
Answer: significantly reduced stress-induced depressive-like behavior; also recorded: significantly decreased stress-induced depressive-like behavior; also recorded: is prophylactic against depressive-like behavior; also recorded: prophylactic against stress-induced depressive-like behavior; also recorded: effective prophylactics against a variety of stressors; also recorded: protect against stress-induced depressive-like behavior

Question: And the “* (significance), Sal vs. drug, Fisher's PLSD: Immobility Time (min 1), Forced Swim Test Day 1” value (female 129S6/SvEv mice [2])?
Answer: *** (*** p<0.0001)

Question: And the “* (significance), Sal vs. drug, Fisher's PLSD: Immobility Time (min 1), Forced Swim Test Day 2” value (female 129S6/SvEv mice [2])?
Answer: ** (** p<0.01)

Question: And the “* (significance), Sal vs. drug, Fisher's PLSD: Immobility Time (min 2), Forced Swim Test Day 1” value (female 129S6/SvEv mice [2])?
Answer: *** (*** p<0.0001)

Question: And the “* (significance), Sal vs. drug, Fisher's PLSD: Immobility Time (min 3), Forced Swim Test Day 1” value (female 129S6/SvEv mice [2])?
Answer: *** (*** p<0.0001)

Question: What about the “* (significance), Sal vs. drug, Fisher's PLSD: Immobility Time (min 4), Forced Swim Test Day 1” value (female 129S6/SvEv mice [2]) of the same compound?
Answer: *** (*** p<0.0001)

Question: And the “* (significance), Sal vs. drug, Fisher's PLSD: Immobility Time (min 5), Forced Swim Test Day 1” value (female 129S6/SvEv mice [2])?
Answer: *** (*** p<0.0001)

Question: And the “* (significance), Sal vs. drug, Fisher's PLSD: Immobility Time (min 5), Forced Swim Test Day 2” value (female 129S6/SvEv mice [2])?
Answer: * (* p<0.05)

Question: What about the “* (significance), Sal vs. drug, Fisher's PLSD: Immobility Time (min 6), Forced Swim Test Day 1” value (female 129S6/SvEv mice [2]) of the same compound?
Answer: *** (*** p<0.0001)

Question: And the “* (significance), Sal vs. drug, Fisher's PLSD: Immobility Time (min 6), Forced Swim Test Day 2” value (female 129S6/SvEv mice [2])?
Answer: ** (** p<0.01)

Question: What about the “* (significance), Sal vs. drug, Fisher's PLSD: Immobility Time Average (min 3-6), Forced Swim Test Day 2” value (female 129S6/SvEv mice [2]) of the same compound?
Answer: * (* p<0.05)

Question: What about the “* (significance), Sal vs. drug, Fishers PLSD: Immobility Time Average (min 1-6), Forced Swim Test Day 1” value (female 129S6/SvEv mice [2]) of the same compound?
Answer: *** (*** p<0.0001)

Question: And the “p, Sal vs. drug, Fisher's PLSD: Immobility Time (min 1), Forced Swim Test Day 1” value (female 129S6/SvEv mice [2])?
Answer: <0.0001

Question: And the “p, Sal vs. drug, Fisher's PLSD: Immobility Time (min 1), Forced Swim Test Day 2” value (female 129S6/SvEv mice [2])?
Answer: 0.0073

Question: What about the “p, Sal vs. drug, Fisher's PLSD: Immobility Time (min 2), Forced Swim Test Day 1” value (female 129S6/SvEv mice [2]) of the same compound?
Answer: <0.0001

Question: What about the “p, Sal vs. drug, Fisher's PLSD: Immobility Time (min 2), Forced Swim Test Day 2” value (female 129S6/SvEv mice [2]) of the same compound?
Answer: 0.8092

Question: What about the “p, Sal vs. drug, Fisher's PLSD: Immobility Time (min 3), Forced Swim Test Day 1” value (female 129S6/SvEv mice [2]) of the same compound?
Answer: <0.0001

Question: And the “p, Sal vs. drug, Fisher's PLSD: Immobility Time (min 4), Forced Swim Test Day 1” value (female 129S6/SvEv mice [2])?
Answer: <0.0001

Question: And the “p, Sal vs. drug, Fisher's PLSD: Immobility Time (min 5), Forced Swim Test Day 1” value (female 129S6/SvEv mice [2])?
Answer: <0.0001

Question: What about the “p, Sal vs. drug, Fisher's PLSD: Immobility Time (min 5), Forced Swim Test Day 2” value (female 129S6/SvEv mice [2]) of the same compound?
Answer: 0.0328

Question: What about the “p, Sal vs. drug, Fisher's PLSD: Immobility Time (min 6), Forced Swim Test Day 1” value (female 129S6/SvEv mice [2]) of the same compound?
Answer: <0.0001

Question: What about the “p, Sal vs. drug, Fisher's PLSD: Immobility Time (min 6), Forced Swim Test Day 2” value (female 129S6/SvEv mice [2]) of the same compound?
Answer: 0.0069

Question: What about the “p, Sal vs. drug, Fisher's PLSD: Immobility Time Average (min 3-6), Forced Swim Test Day 2” value (female 129S6/SvEv mice [2]) of the same compound?
Answer: 0.0177

Question: And the “p, Sal vs. drug, Fishers PLSD: Immobility Time Average (min 1-6), Forced Swim Test Day 1” value (female 129S6/SvEv mice [2])?
Answer: <0.0001
